Experimental data published in patent publication US10034939B2, “Synergistic combination of immunologic inhibitors for the treatment of cancer” (The University of Chicago, priority 2012, dated 2018).
Where two headings read alike, the source gives them in different places.

Legend:
[1] = biological target: Human indoleamine 2,3-dioxygenasae (IDO) (Homo sapiens (Human), UniProt P14902); test: Human indoleamine 2,3-dioxygenasae (IDO) enzyme assay; format: biochemical
Description: Human indoleamine 2,3-dioxygenasae (IDO) enzyme assay: Human indoleamine 2,3-dioxygenasae (IDO) with an N-terminal His tag was expressed in E. coli and purified to homogeneity. IDO catalyzes the oxidative cleavage of the pyrrole ring of the indole nucleus of tryptophan to yield N′-formylkynurenine.
IC50 data are from the IDO enzyme assay described above.

[2] = test system: CD3^+ cells in the peripheral blood; test: Depletion of circulating T cells by FTY720 in tumor-bearing mice; format: in vivo; settings: 25 μg FTY-720 oral gavage on day 4, relative to vehicle-treated mice
Experimental: Prior to the initiation of the therapy regimens (2.5 h pre-treatment), fingolimod (FTY-720, Enzo Life Sciences) was given to mice to inhibit lymphocyte migration out of lymphoid organs. FTY-720 stock solution (10 mg/ml in DMSO) was diluted to a 125 μg/ml concentration in PBS directly before administration. Mice received a dose of 25 μg FTY-720 or PBS containing DMSO as control via oral gavage. Therapy was initiated the same day (2.5 h delayed) and mice were analyzed on day 7 to perform the ex vivo functional assay as described above.
To determine whether the presence of CD8^+ T cells showing high levels of IL-2 production and proliferation within the tumor microenvironment following effective immunotherapy doublets was a result of new T cell migration into the tumor site or reactivation of T cells already present, FTY720 treatment was utilized to block the sphingosine 1-phosphate receptor-1 and thereby prohibit T cells from exiting lymphoid organs. Previous studies have shown that the effect can be detected as soon as 2 h after initial administration and is stable for up to 4 days. FTY720 was administered or control vehicle to tumor-bearing mice on day 4, 2.5 h prior to the initiation of immunotherapies. […] Overall, a 90% reduction in circulating CD3^+ T cells in FTY720-treated mice was detected (FIG. 13A). […]

[3] = test system: CD3^+ cells in the peripheral blood; settings: previous studies; cited from earlier work
[4] = test system: B16-SIY cells; test: Tumor growth inhibition (TGI), unaffected fraction synergy analysis of combination therapies; format: in vivo, mice
Experimental: Treatment was initiated on day 4 post tumor inoculation with the following regimens for each drug. αCTLA-4 antibody (clone UC10-4F10-11, Bio-X-Cell) was given i.p. on day 4, 7 and 10 at a dose of 100 μg/mouse. αPD-L1 antibody (clone 10F.9G2, Bio-X-Cell) was given i.p. (100 μg/mouse) every other day starting on day 4 ending on day 16 post tumor inoculation. IDOi (INCB23843, Incyte Corporation) was dissolved in 0.5% methylcellulose and administered at 300 mg/kg po QD on a 5 days on/2 days off schedule starting on day 4. In the case of functional experiments with an earlier endpoint, treatment regimens were carried out as described until the day of T cell analysis. A comparison between IDOi and IDOc (INCB24360, Incyte Corporation) was perfomed according to the treatment regime described above. Tumor outgrowth was followed starting day 7 onwards and is depicted in combination with anti-CTLA4 (FIG. 18A) or anti-PD-L1 (FIG. 18B). N=5 mice per group, and a two-way Anova test was used to determine significance between the groups.
Treatment was administered in the same fashion as described for FIG. 9, with the exception that IDOi (INCB23843) was replaced by IDOc (INCB24360) in the indicated groups. […] Synergy analysis was performed with day 15 data and with day 23 data. Actual tumor growth inhibition (TGI) is the experimental TGI seen in this experiment for the combinations, and predicted TGI is the TGI that would have been expected for a purely additive combination effect from the performance of the individual agents in this experiment. Actual TGIs higher than predicted TGIs reflect better than additive (synergistic) data.

Sequence of Human indoleamine 2,3-dioxygenasae (IDO) (P14902 whole entry): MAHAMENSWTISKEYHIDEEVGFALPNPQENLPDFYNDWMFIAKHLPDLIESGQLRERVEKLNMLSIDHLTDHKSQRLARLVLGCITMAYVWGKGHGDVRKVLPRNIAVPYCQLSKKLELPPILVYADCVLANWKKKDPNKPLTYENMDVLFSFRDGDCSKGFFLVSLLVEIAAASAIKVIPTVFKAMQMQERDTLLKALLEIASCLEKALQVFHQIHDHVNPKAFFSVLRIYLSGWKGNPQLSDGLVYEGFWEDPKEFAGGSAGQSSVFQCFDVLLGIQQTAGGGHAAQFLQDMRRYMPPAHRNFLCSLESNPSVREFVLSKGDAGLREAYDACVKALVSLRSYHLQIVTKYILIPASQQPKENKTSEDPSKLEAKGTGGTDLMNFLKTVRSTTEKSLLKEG

SMILES	IC50 ([1]; read-out: IDO IC50) [nM]	other results
NS(=O)(=O)NCCCNc1nonc1C(=NO)Nc1ccc(F)c(Br)c1 [Example 3, 4-({3-[(Aminosulfonyl)amino]propyl}amino)-N-(3-bromo-4-fluorophenyl)-N′-hydroxy-1,2,5-oxadiazole-3-carboximidamide]	< 100	
NS(=O)(=O)NCCNc1nonc1C(=NO)Nc1ccc(F)c(Cl)c1 [Example 5, 4-({2-[(Aminosulfonyl)amino]ethyl}amino)-N-(3-chloro-4-fluorophenyl)-N′-hydroxy-1,2,5-oxadiazole-3-carboximidamide]	< 200	
NS(=O)(=O)NCCCNc1nonc1C(=NO)Nc1ccc(F)c(Cl)c1 [Example 7, 4-({3-[(Aminosulfonyl)amino]propyl}amino)-N-(3-chloro-4-fluorophenyl)-N′-hydroxy-1,2,5-oxadiazole-3-carboximidamide]	< 200	
NS(=O)(=O)NCCNc1nonc1C(=NO)Nc1cccc(C(F)(F)F)c1 [Example 13, 4-({2-[(Aminosulfonyl)amino]ethyl}amino)-N′-hydroxy-N-[3-(trifluoromethyl)phenyl]-1,2,5-oxadiazole-3-carboximidamide]	< 500	
NS(=O)(=O)NCCCNc1nonc1C(=NO)Nc1cccc(C(F)(F)F)c1 [Example 15, 4-({3-[(Aminosulfonyl)amino]propyl}amino)-N′-hydroxy-N-[3-(trifluoromethyl)phenyl]-1,2,5-oxadiazole-3-carboximidamide]	< 200	
CS(=O)(=O)NCCCNc1nonc1C(=NO)Nc1cccc(C(F)(F)F)c1 [Example 16, N′-Hydroxy-4-({3-[(methylsulfonyl)amino]propyl}amino)-N-[3-(trifluoromethyl)phenyl]-1,2,5-oxadiazole-3-carboximidamide]	< 200	
N#Cc1cc(NC(=NO)c2nonc2NCCNS(N)(=O)=O)ccc1F [Example 18, 4-({2-[(Aminosulfonyl)amino]ethyl}amino)-N-(3-cyano-4-fluorophenyl)-N′-hydroxy-1,2,5-oxadiazole-3-carboximidamide]	< 750	
NS(=O)(=O)NCCNc1nonc1C(=NO)NCc1cc(Br)co1 [Example 20, 4-({2-[(Aminosulfonyl)amino]ethyl}amino)-N-[(4-bromo-2-furyl)methyl]-N′-hydroxy-1,2,5-oxadiazole-3-carboximidamide]	< 500	
NS(=O)(=O)NCCNc1nonc1C(=NO)NCc1cc(Cl)co1 [Example 21, 4-({2-[(Aminosulfonyl)amino]ethyl}amino)-N-[(4-chloro-2-furyl)methyl]-N′-hydroxy-1,2,5-oxadiazole-3-carboximidamide]	< 750	
CN(CCNc1nonc1/C(=N/O)Nc1ccc(F)c(Cl)c1)S(N)(=O)=O [Example 24, 4-(2-[(Aminosulfonyl)(methyl)amino]ethylamino)-N-(3-chloro-4-fluorophenyl)-N′-hydroxy-1,2,5-oxadiazole-3-carboximidamide]	< 200	IC50 ([1]; average of five lots, read-out: IC50): 132 nM
CCCCCCCCc1ccc(CCC(N)(CO)CO)cc1 [FTY720, fingolimod]		reduction in circulating CD3^+ T cells [2]: 90%; time after initial administration at which the effect can be detected [3]: 2 h; time for which the effect is stable [3]: up to 4 days
NS(=O)(=O)NCCNc1nonc1/C(=N/O)Nc1ccc(F)c(Br)c1 [IDOc]		Actual TGI ([4]; Day 15 (end of dosing), combination with anti CTLA4): 74%; Actual TGI ([4]; Day 15 (end of dosing), combination with antiPDL1): 81%; Predicted TGI ([4]; Day 15, combination with anti CTLA4, expected for a purely additive effect from the individual agents): 66%; Predicted TGI ([4]; Day 15, combination with antiPDL1, expected for a purely additive effect): 24%; Actual TGI ([4]; Day 23 (last day of vehicles), combination with anti CTLA4): 93%; Actual TGI ([4]; Day 23 (last day of vehicles), combination with antiPDL1): 82%; Predicted TGI ([4]; Day 23, combination with anti CTLA4, expected for a purely additive effect): 65%; Predicted TGI ([4]; Day 23, combination with antiPDL1, expected for a purely additive effect): 35%

Second part, led by results:

IC50 ([1]; read-out: IDO IC50) [nM]	SMILES	other results
< 100	CS(=O)(=O)NCCCNc1nonc1C(=NO)Nc1ccc(F)c(Br)c1 [Example 4, N-(3-Bromo-4-fluorophenyl)-N′-hydroxy-4-({3-[(methylsulfonyl)amino]propyl}amino)-1,2,5-oxadiazole-3-carboximidamide]	
< 200	CS(=O)(=O)NCCNc1nonc1C(=NO)Nc1ccc(F)c(Cl)c1 [Example 6, N-(3-Chloro-4-fluorophenyl)-N′-hydroxy-4-({2-[(methylsulfonyl)amino]ethyl}amino)-1,2,5-oxadiazole-3-carboximidamide]	
< 200	CS(=O)(=O)NCCCNc1nonc1C(=NO)Nc1ccc(F)c(Cl)c1 [Example 8, N-(3-Chloro-4-fluorophenyl)-N′-hydroxy-4-({3-[(methylsulfonyl)amino]propyl}amino)-1,2,5-oxadiazole-3-carboximidamide]	
< 100	NS(=O)(=O)NCCNc1nonc1C(=NO)Nc1ccc(F)c(C(F)(F)F)c1 [Example 9, 4-({2-[(Aminosulfonyl)amino]ethyl}amino)-N-[4-fluoro-3-(trifluoromethyl)phenyl]-N′-hydroxy-1,2,5-oxadiazole-3-carboximidamide]	
< 100	CS(=O)(=O)NCCNc1nonc1C(=NO)Nc1ccc(F)c(C(F)(F)F)c1 [Example 10, N-[4-Fluoro-3-(trifluoromethyl)phenyl]-N′-hydroxy-4-({2-[(methylsulfonyl)amino]ethyl}amino)-1,2,5-oxadiazole-3-carboximidamide]	
< 100	NS(=O)(=O)NCCCNc1nonc1C(=NO)Nc1ccc(F)c(C(F)(F)F)c1 [Example 11, 4-({3-[(Aminosulfonyl)amino]propyl}amino)-N-[4-fluoro-3-(trifluoromethyl)phenyl]-N′-hydroxy-1,2,5-oxadiazole-3-carboximidamide]	
< 100	CS(=O)(=O)NCCCNc1nonc1C(=NO)Nc1ccc(F)c(C(F)(F)F)c1 [Example 12, N-[4-Fluoro-3-(trifluoromethyl)phenyl]-N′-hydroxy-4-({3-[(methylsulfonyl)amino]propyl}amino)-1,2,5-oxadiazole-3-carboximidamide]	
< 200	CS(=O)(=O)NCCNc1nonc1C(=NO)Nc1cccc(C(F)(F)F)c1 [Example 14, N′-Hydroxy-4-({2-[(methylsulfonyl)amino]ethyl}amino)-N-[3-(trifluoromethyl)phenyl]-1,2,5-oxadiazole-3-carboximidamide]	
< 500	Cc1cc(NC(=NO)c2nonc2NCCNS(C)(=O)=O)ccc1F [Example 17, N-(4-Fluoro-3-methylphenyl)-N′-hydroxy-4-({2-[(methylsulfonyl)amino]ethyl}amino)-1,2,5-oxadiazole-3-carboximidamide]	
< 500	CS(=O)(=O)NCCNc1nonc1C(=NO)Nc1ccc(F)c(C#N)c1 [Example 19, N-(3-Cyano-4-fluorophenyl)-N′-hydroxy-4-({2-[(methylsulfonyl)amino]ethyl}amino)-1,2,5-oxadiazole-3-carboximidamide]	
